Test system: 521955-158-R2-J5-PDC complex spheroids, viability
Test: Anticancer human tumor 521955-158-R2-J5-PDC patient-derived pancreatic carcinoma cell line growth inhibition [RAS]
Details: for viability, T/C: stronger effect = lower value
In short: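 Tumour cells grown as complex spheroids with HUVEC endothelial cells and mesenchymal stem cells, treated with RAS pathway inhibitor combinations. Each agent spans half-log steps from near clinical Cmax, or 10 microM where Cmax is unknown.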

[1] = curve of first compound, second compound 0.000949 µM
[2] = curve of first compound, second compound 0.003 µM
[3] = curve of first compound, second compound 0.00949 µM
[4] = curve of first compound, second compound 0.03 µM
[5] = curve of first compound, second compound 0.0949 µM
[6] = curve of first compound, second compound 0.3 µM
[7] = second compound 0.000949 µM, first compound 0.0316 µM
[8] = second compound 0.000949 µM, first compound 0.1 µM
[9] = second compound 0.000949 µM, first compound 0.316 µM
[10] = second compound 0.000949 µM, first compound 1 µM
[11] = second compound 0.000949 µM, first compound 3.16 µM
[12] = second compound 0.000949 µM, first compound 10 µM
[13] = second compound 0.003 µM, first compound 0.0316 µM
[14] = second compound 0.003 µM, first compound 0.1 µM
[15] = second compound 0.003 µM, first compound 0.316 µM
[16] = second compound 0.003 µM, first compound 1 µM
[17] = second compound 0.003 µM, first compound 3.16 µM
[18] = second compound 0.003 µM, first compound 10 µM
[19] = second compound 0.00949 µM, first compound 0.0316 µM
[20] = second compound 0.00949 µM, first compound 0.1 µM
[21] = second compound 0.00949 µM, first compound 0.316 µM
[22] = second compound 0.00949 µM, first compound 1 µM
[23] = second compound 0.00949 µM, first compound 3.16 µM
[24] = second compound 0.00949 µM, first compound 10 µM
[25] = second compound 0.03 µM, first compound 0.0316 µM
[26] = second compound 0.03 µM, first compound 0.1 µM
[27] = second compound 0.03 µM, first compound 0.316 µM
[28] = second compound 0.03 µM, first compound 1 µM
[29] = second compound 0.03 µM, first compound 3.16 µM
[30] = second compound 0.03 µM, first compound 10 µM
[31] = second compound 0.0949 µM, first compound 0.0316 µM
[32] = second compound 0.0949 µM, first compound 0.1 µM
[33] = second compound 0.0949 µM, first compound 0.316 µM
[34] = second compound 0.0949 µM, first compound 1 µM
[35] = second compound 0.0949 µM, first compound 3.16 µM
[36] = second compound 0.0949 µM, first compound 10 µM
[37] = second compound 0.3 µM, first compound 0.0316 µM
[38] = second compound 0.3 µM, first compound 0.1 µM
[39] = second compound 0.3 µM, first compound 0.316 µM
[40] = second compound 0.3 µM, first compound 1 µM
[41] = second compound 0.3 µM, first compound 3.16 µM
[42] = second compound 0.3 µM, first compound 10 µM
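Also: compound exposure lasted seven days before the viability read.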
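For viability, T/C in this document: spheroids also contain HUVEC endothelial cells and mesenchymal stem cells as stroma.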

With CCC(CC)c1cc(NC2CCC(N)C2)n2nccc2n1 (stereo unspecified) + CCn1c(-c2cccnc2C(C)OC)c2c3cc(ccc31)N1CCOC(CC(NC(=O)C(C(C)C)N(C)C(=O)C3(F)CCN(C(=O)C#CC(C)(C)N(C)C)CC3)C(=O)N3CCCC(N3)C(=O)OCC(C)(C)C2)C1 the IC50 [1] was 1900 nM, the IC50 [2] was 1910 nM and the IC50 [3] was 1960 nM. The IC50 [4] was 1930 nM, the IC50 [5] was 1730 nM and the IC50 [6] was 1700 nM. For the same compound, the viability, T/C [7] was 93.9%, the viability, T/C [8] was 92.6% and the viability, T/C [9] was 104%. For the same compound, the viability, T/C [10] was 122%, the viability, T/C [11] was 6.03% and the viability, T/C [12] was 9.22%. The viability, T/C [13] was 94.6%, the viability, T/C [14] was 108% and the viability, T/C [15] was 106%. It also gave a viability, T/C [16] of 116%, a viability, T/C [17] of 5.99% and a viability, T/C [18] of 6.76%. For the same compound, the viability, T/C [19] was 113%, the viability, T/C [20] was 97.7% and the viability, T/C [21] was 116%. It also gave a viability, T/C [22] of 117%, a viability, T/C [23] of 7.29% and a viability, T/C [24] of 6.73%. For the same compound, the viability, T/C [25] was 99.2%, the viability, T/C [26] was 101% and the viability, T/C [27] was 105%. For the same compound, the viability, T/C [28] was 117%, the viability, T/C [29] was 8.41% and the viability, T/C [30] was 5.64%. It also gave a viability, T/C [31] of 83.1%, a viability, T/C [32] of 75.6% and a viability, T/C [33] of 97.4%. For the same compound, the viability, T/C [34] was 100%, the viability, T/C [35] was 6.48% and the viability, T/C [36] was 6.71%. The viability, T/C [37] was 84.9%, the viability, T/C [38] was 75.4% and the viability, T/C [39] was 88.1%. For the same compound, the viability, T/C [40] was 88.6%, the viability, T/C [41] was 9.96% and the viability, T/C [42] was 5.87%.
For CCc1c2c(nc3ccc(O)cc13)-c1cc3c(c(=O)n1C2)COC(=O)[C@]3(O)CC, the viability, T/C (compound 0.000949 µM) was 82.5% [middle of 4 runs], the viability, T/C (compound 0.003 µM) was 44.6% [middle of 4 runs] and the viability, T/C (compound 0.00949 µM) was 19.9% [middle of 4 runs]. The viability, T/C (compound 0.03 µM) was 10.1% [middle of 4 runs], the viability, T/C (compound 0.0949 µM) was 6.59% [middle of 4 runs] and the viability, T/C (compound 0.3 µM) was 6.5% [middle of 4 runs]. The IC50 (curve of compound) was 2.64 nM [middle of 4 runs].
For CCC(CC)c1cc(NC2CCC(N)C2)n2nccc2n1 (stereo unspecified) + CCn1c(-c2cc(N3CCN(C)CC3)cnc2C(C)OC)c2c3cc(ccc31)-c1csc(n1)CC(NC(=O)C1CC1C)C(=O)N1CCCC(N1)C(=O)OCC(C)(C)C2, the IC50 [1] was less than 31.6 nM, the IC50 [2] was 31.6 nM and the IC50 [3] was less than 31.6 nM. For the same compound, the IC50 [4] was less than 31.6 nM, the IC50 [5] was less than 31.6 nM and the IC50 [6] was less than 31.6 nM. The viability, T/C [7] was 39%, the viability, T/C [8] was 50.8% and the viability, T/C [9] was 56%. For the same compound, the viability, T/C [10] was 48.2%, the viability, T/C [11] was 11.8% and the viability, T/C [12] was 10.7%. The viability, T/C [13] was 47.5%, the viability, T/C [14] was 44.3% and the viability, T/C [15] was 50.6%. It also gave a viability, T/C [16] of 43%, a viability, T/C [17] of 6.49% and a viability, T/C [18] of 10.2%. The viability, T/C [19] was 34.5%, the viability, T/C [20] was 32.3% and the viability, T/C [21] was 43.7%. It also gave a viability, T/C [22] of 44.4%, a viability, T/C [23] of 9.61% and a viability, T/C [24] of 8.45%. It also gave a viability, T/C [25] of 23.9%, a viability, T/C [26] of 23.9% and a viability, T/C [27] of 24.4%. The viability, T/C [28] was 21.2%, the viability, T/C [29] was 7.51% and the viability, T/C [30] was 7.75%. For the same compound, the viability, T/C [31] was 12.3%, the viability, T/C [32] was 11.3% and the viability, T/C [33] was 17.4%. It also gave a viability, T/C [34] of 12.1%, a viability, T/C [35] of 9.07% and a viability, T/C [36] of 8.98%. The viability, T/C [37] was 10.9%, the viability, T/C [38] was 10.8% and the viability, T/C [39] was 11.7%. It also gave a viability, T/C [40] of 12.6%, a viability, T/C [41] of 10.9% and a viability, T/C [42] of 8.49%.
